Structures can show the parent of a compound that is named as a salt. Where two headings read alike, the source gives them in different places.
Tests used:
Format in all cases: biochemical
recombinant human VAP-1 = target: T1, recombinant human VAP-1 (Homo sapiens, UniProt Q16853); test: Activity on recombinant human VAP-1, Amplex Red HRP-coupled hydrogen peroxide assay, benzylamine substrate; details: recombinant human VAP-1, benzylamine substrate; read-out: Inhibitory Activity (IC50, nM) human VAP-1
T1 construct: purchased R&D systems
T1 sequence (Q16853 1-763): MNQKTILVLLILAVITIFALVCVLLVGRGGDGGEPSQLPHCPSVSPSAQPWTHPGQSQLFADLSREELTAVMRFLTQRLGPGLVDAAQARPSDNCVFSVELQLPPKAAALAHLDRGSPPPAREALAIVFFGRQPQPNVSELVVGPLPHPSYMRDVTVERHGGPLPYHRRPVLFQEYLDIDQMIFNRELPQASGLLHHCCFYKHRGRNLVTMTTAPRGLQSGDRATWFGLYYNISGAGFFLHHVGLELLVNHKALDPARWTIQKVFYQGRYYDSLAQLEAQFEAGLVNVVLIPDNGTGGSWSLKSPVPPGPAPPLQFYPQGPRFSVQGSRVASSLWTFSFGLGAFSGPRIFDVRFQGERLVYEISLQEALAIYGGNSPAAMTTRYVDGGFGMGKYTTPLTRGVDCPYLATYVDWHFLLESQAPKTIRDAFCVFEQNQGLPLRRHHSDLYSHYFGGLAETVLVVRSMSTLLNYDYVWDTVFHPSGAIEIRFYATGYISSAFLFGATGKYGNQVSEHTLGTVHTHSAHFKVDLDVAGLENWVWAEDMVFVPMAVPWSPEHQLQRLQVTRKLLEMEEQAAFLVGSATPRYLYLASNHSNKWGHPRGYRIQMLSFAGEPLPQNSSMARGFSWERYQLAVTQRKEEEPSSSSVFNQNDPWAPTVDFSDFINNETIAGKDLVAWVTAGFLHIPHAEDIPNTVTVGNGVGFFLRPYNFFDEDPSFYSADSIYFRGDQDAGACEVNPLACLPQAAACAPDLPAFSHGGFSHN
Summary of the method: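 Enzyme in 50 mM sodium phosphate (pH 7.4) is exposed to test compound for 30 min at 37 °C. Benzylamine (1 mM) with HRP and Amplex Red then starts the reaction, and the fluorescence rate, relative to a DMSO-only control, gives IC50.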

[1] = target: T2, recombinant human MAO-A (monoamine oxidase-A) (Homo sapiens, UniProt P21397); test: Activity on recombinant human MAO-A, Amplex Red method, 0.5 mM tyramine substrate; details: 0.5 mM tyramine substrate, read-out: Inhibitory Activity (IC50, nM) MAO-A
T2 construct: purchased Sigma-Aldrich
T2 sequence (P21397 1-527): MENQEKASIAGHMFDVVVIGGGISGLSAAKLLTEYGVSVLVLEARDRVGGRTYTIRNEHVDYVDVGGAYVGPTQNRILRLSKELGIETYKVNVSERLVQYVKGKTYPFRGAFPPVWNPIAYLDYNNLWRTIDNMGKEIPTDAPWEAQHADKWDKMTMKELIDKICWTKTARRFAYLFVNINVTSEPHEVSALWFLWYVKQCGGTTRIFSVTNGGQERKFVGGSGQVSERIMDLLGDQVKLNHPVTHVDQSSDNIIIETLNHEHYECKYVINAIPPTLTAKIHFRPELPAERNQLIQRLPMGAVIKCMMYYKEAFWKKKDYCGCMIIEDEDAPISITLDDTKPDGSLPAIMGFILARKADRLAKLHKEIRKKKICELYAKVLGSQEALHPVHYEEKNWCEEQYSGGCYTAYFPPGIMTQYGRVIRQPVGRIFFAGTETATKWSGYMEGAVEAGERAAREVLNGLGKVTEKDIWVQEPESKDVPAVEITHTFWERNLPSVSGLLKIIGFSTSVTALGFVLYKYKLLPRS
Summary of the method: (§1)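 Enzyme in pH 7.4 phosphate buffer; 30 min, 37° C with compound (DMSO <1%); start with 200 uM Amplex Red + 1 U/mL HRP + tyramine 0.5 mM (MAO-A) or benzylamine 1 mM (MAO-B); kinetic read ex 544/em 590, 1-2 h; % rate decrease vs DMSO control → IC50, 4-parameter fit.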

[2] = target: T3, recombinant human MAO-B (monoamine oxidase-B) (Homo sapiens, UniProt P27338); test: Activity on recombinant human MAO-B, Amplex Red method, 1 mM benzylamine substrate; details: 1 mM benzylamine substrate, read-out: Inhibitory Activity (IC50, nM) MAO-B
T3 construct: purchased Sigma-Aldrich
T3 sequence (P27338 1-520): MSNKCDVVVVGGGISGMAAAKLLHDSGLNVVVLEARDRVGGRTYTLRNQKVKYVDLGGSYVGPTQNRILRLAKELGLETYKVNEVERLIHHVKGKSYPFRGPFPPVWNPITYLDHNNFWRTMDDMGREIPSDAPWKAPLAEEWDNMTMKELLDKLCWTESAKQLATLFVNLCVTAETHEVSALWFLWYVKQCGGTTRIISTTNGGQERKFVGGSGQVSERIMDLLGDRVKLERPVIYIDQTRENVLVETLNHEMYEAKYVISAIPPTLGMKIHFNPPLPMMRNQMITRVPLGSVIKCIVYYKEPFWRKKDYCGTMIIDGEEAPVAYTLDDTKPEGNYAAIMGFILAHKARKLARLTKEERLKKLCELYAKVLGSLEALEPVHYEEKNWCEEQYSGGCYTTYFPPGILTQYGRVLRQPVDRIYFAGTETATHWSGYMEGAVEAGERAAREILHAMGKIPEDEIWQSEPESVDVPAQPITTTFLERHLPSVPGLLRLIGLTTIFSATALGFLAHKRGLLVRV
Summary of the method: as §1

[3] = target: T4, recombinant human DAO (diamine oxidase) (Homo sapiens, UniProt P19801); test: Activity on recombinant human DAO, Amplex Red method, 1 mM putrescine substrate; details: recombinant human DAO, 1 mM putrescine substrate, read-out: Inhibitory Activity (IC50, nM) DAO
T4 construct: purchased R&D systems
T4 sequence (P19801 20-751): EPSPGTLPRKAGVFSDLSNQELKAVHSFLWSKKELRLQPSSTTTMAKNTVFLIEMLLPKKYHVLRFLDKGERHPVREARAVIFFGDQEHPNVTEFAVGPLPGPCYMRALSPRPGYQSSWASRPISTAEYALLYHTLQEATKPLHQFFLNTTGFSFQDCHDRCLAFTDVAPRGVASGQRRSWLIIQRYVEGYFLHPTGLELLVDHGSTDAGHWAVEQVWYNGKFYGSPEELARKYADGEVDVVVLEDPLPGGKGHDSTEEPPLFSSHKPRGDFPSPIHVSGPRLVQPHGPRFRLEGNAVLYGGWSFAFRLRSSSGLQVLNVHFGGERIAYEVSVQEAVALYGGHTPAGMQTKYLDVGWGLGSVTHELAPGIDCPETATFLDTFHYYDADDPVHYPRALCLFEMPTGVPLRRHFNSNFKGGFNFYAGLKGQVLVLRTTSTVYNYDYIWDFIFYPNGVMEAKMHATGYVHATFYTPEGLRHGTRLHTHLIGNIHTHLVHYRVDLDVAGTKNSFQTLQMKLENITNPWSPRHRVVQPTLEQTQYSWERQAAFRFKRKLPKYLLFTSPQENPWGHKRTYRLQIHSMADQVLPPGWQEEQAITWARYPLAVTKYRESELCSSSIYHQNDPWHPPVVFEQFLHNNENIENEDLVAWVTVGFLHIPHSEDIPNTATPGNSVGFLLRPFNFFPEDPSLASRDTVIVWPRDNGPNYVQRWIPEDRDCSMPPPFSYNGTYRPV
Summary of the method: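 Inhibition of recombinant human DAO (diamine oxidase, R&D systems) was assessed with the Amplex Red Hydrogen Peroxide Assay Kit. Hydrogen peroxide produced from 1 mM putrescine was detected through an HRP-coupled reaction that converts Amplex Red into fluorescent resorufin, read at 544 nm excitation and 590 nm emission. IC50 values came from four-parameter logistic fits in GraphPad Prism.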

Structure (SMILES): CN1C(=O)CCc2cc(-c3cccc(-n4cnn(C/C(=C/F)CN)c4=O)n3)ccc21 [Example 198, 6-[6-[1-[(E)-2-(aminomethyl)-3-fluoro-allyl]-5-oxo-1,2,4-triazol-4-yl]-2-pyridyl]-1-methyl-3,4-dihydroquinolin-2-one hydrochloride]
- IC50 (recombinant human VAP-1): 2.9 nM
- IC50 [1]: > 100000 nM
- IC50 [2]: > 10000 nM
- IC50 [3]: 130 nM

Structure (SMILES): NC/C(=C\F)Cn1ncn(-c2cccc(-c3ccc4c(c3)NC(=O)CO4)n2)c1=O [Example 199, hydrochloride]
- IC50 (recombinant human VAP-1): 4.6 nM
- IC50 [1]: > 100000 nM
- IC50 [2]: 1900 nM
- IC50 ([3]; bound qualified by footnote * / **): < 100 nM

Structure (SMILES): NC/C(=C\F)Cn1ncn(-c2cccc(-c3ccc4c(c3)NC(=O)OC4)n2)c1=O [Example 200, 7-(6-{1-[(2E)-2-(aminomethyl)-3-fluoroprop-2-en-1-yl]-5-oxo-1,5-dihydro-4H-1,2,4-triazol-4-yl}pyridin-2-yl)-1,4-dihydro-2H-3,1-benzoxazin-2-one hydrochloride]
- IC50 (recombinant human VAP-1): 0.2 nM
- IC50 [1]: > 100000 nM
- IC50 [2]: 1100 nM
- IC50 [3]: 1.6 nM

Structure (SMILES): NC/C(=C\F)Cn1ncn(-c2cccc(-c3cccc4[nH]c(=O)ccc34)n2)c1=O [Example 201, 5-(6-{1-[(2E)-2-(aminomethyl)-3-fluoroprop-2-en-1-yl]-5-oxo-1,5-dihydro-4H-1,2,4-triazol-4-yl}pyridin-2-yl)quinolin-2(1H)-one hydrochloride]
- IC50 (recombinant human VAP-1): 1.3 nM
- IC50 [1]: > 100000 nM
- IC50 [2]: > 10000 nM
- IC50 [3]: 17 nM

Structure (SMILES): CN1CCOc2cc(-c3cccc(-n4cnn(C/C(=C/F)CN)c4=O)n3)ccc21 [Example 202, 2-[(2E)-2-(aminomethyl)-3-fluoroprop-2-en-1-yl]-4-[6-(4-methyl-3,4-dihydro-2H-1,4-benzoxazin-7-yl)pyridin-2-yl]-2,4-dihydro-3H-1,2,4-triazol-3-one hydrochloride]
- IC50 (recombinant human VAP-1): 1 nM
- IC50 [1]: > 100000 nM
- IC50 [2]: 1300 nM
- IC50 [3]: 240 nM

Structure (SMILES): NC/C(=C\F)Cn1ncn(-c2cccc(-c3cccc4c3oc3ccccc34)n2)c1=O [Example 203, 2-[(2E)-2-(aminomethyl)-3-fluoroprop-2-en-1-yl]-4-[6-(dibenzo[b,d]furan-4-yl)pyridin-2-yl]-2,4-dihydro-3H-1,2,4-triazol-3-one hydrochloride]
- IC50 (recombinant human VAP-1): 1.8 nM
- IC50 [1]: 12000 nM
- IC50 [2]: 73 nM
- IC50 [3]: 3 nM

Structure (SMILES): CC(C)c1nc(-c2ccc(-c3cc(-n4cnn(C/C(=C/F)CN)c4=O)ccn3)cc2)no1 [Example 205, 2-[(2E)-2-(aminomethyl)-3-fluoroprop-2-en-1-yl]-4-(2-{4-[5-(propan-2-yl)-1,2,4-oxadiazol-3-yl]phenyl}pyridin-4-yl)-2,4-dihydro-3H-1,2,4-triazol-3-one hydrochloride]
- IC50 (recombinant human VAP-1): 1 nM
- IC50 [1]: > 100000 nM
- IC50 [2]: 240 nM
- IC50 [3]: < 10 nM

Structure (SMILES): CC(C)c1nc(-c2cccc(-c3cc(-n4cnn(C/C(=C/F)CN)c4=O)ccn3)c2)no1 [Example 206, 2-[(2E)-2-(aminomethyl)-3-fluoroprop-2-en-1-yl]-4-(2-{3-[5-(propan-2-yl)-1,2,4-oxadiazol-3-yl]phenyl}pyridin-4-yl)-2,4-dihydro-3H-1,2,4-triazol-3-one hydrochloride]
- IC50 (recombinant human VAP-1): 0.7 nM
- IC50 [1]: > 100000 nM
- IC50 [2]: 110 nM
- IC50 [3]: < 10 nM

Structure (SMILES): NC/C(=C\F)Cn1ncn(-c2ccnc(-c3ccc(N4CCOCC4)cc3)c2)c1=O [Example 207, 2-[(2E)-2-(aminomethyl)-3-fluoroprop-2-en-1-yl]-4-{2-[4-(morpholin-4-yl)phenyl]pyridin-4-yl}-2,4-dihydro-3H-1,2,4-triazol-3-one hydrochloride]
- IC50 (recombinant human VAP-1): 0.45 nM
- IC50 [1]: > 100000 nM
- IC50 [2]: 1400 nM
- IC50 [3]: < 10 nM

Structure (SMILES): NC/C(=C\F)Cn1ncn(-c2ccnc(-c3ccc(C(=O)N4CCOCC4)cc3)c2)c1=O [Example 208, 2-[(2E)-2-(aminomethyl)-3-fluoroprop-2-en-1-yl]-4-{2-[4-(morpholin-4-ylcarbonyl)phenyl]pyridin-4-yl}-2,4-dihydro-3H-1,2,4-triazol-3-one hydrochloride]
- IC50 (recombinant human VAP-1): 0.89 nM
- IC50 [1]: > 100000 nM
- IC50 [2]: > 10000 nM
- IC50 [3]: < 10 nM

Structure (SMILES): NC/C(=C\F)Cn1ncn(-c2ccnc(-c3ccc4c(c3)OCO4)c2)c1=O [Example 209, 2-[(2E)-2-(aminomethyl)-3-fluoroprop-2-en-1-yl]-4-[2-(1,3-benzodioxol-5-yl)pyridin-4-yl]-2,4-dihydro-3H-1,2,4-triazol-3-one hydrochloride]
- IC50 (recombinant human VAP-1): 0.63 nM
- IC50 [1]: > 100000 nM
- IC50 [2]: 17 nM
- IC50 [3]: < 10 nM

Structure (SMILES): Cc1ccc(-c2cccc(-c3noc(C4CC4)n3)c2)nc1-n1cnn(C/C(=C/F)CN)c1=O [Example 210, 2-[(2E)-2-(aminomethyl)-3-fluoroprop-2-en-1-yl]-4-{6-[3-(5-cyclopropyl-1,2,4-oxadiazol-3-yl)phenyl]-3-methylpyridin-2-yl}-2,4-dihydro-3H-1,2,4-triazol-3-one hydrochloride]
- IC50 (recombinant human VAP-1): 52 nM
- IC50 [1]: > 100000 nM
- IC50 [2]: > 10000 nM
- IC50 [3]: 4400 nM

Source: patent publication US11492335B2, “Aryl or heteroaryl triazolone derivatives or salts thereof, or pharmaceutical compositions comprising the same” (YUHAN CORPORATION, priority 2018, dated 2022)
